Results reported in patent US11484529B2, “Desmethylanethole trithione derivatives for the treatment of diseases linked to mitochondrial reactive oxygen species (ROS) production” (OP2 Drugs, priority 2017, dated 2022).

Columns and labels:
[1] = test system: diet-induced obese (DIO) mice; experiment: Chronic treatment in diet-induced obese mice (body weight, body composition, ITT, glucose); format: in vivo, mouse; details: for AUC of glucose during ITT: mean±SEM, vehicle 12812.50±750.35
Protocol: The aim of the study was to determine whether the compound AOL, administered daily at the doses of 5 mg/kg and 10 mg/kg for up to five weeks by intraperitoneal (i.p.) daily administration in diet-induced obese (DIO) mice fed with a high-fat diet (HFD), modifies food intake, body weight, adiposity and glucose metabolism.
Mice were fed ad libitum with a HFD (60% of calories from fat, mostly lard) for twelve weeks before the pharmacological study begun. Animals received AOL or its vehicle by intraperitoneal (i.p.) administration and were maintained on HFD for the length of the study. Food intake and body weight were measured daily and recorded for up to three consecutive weeks.
Thirty 7-weeks-old male C57/B16J mice arrived to the laboratory on 25 Feb. 2016 and underwent a first in vivo body composition analysis (Echo MRI 900, EchoMRI Systems) after 1 week of adaptation to the experimental housing room. After this first MRI analysis, animals were fed a high-fat diet (HFD) ad libitum for a period of twelve weeks. Thereafter, they underwent a second MRI analysis and were distributed into 3 experimental groups of equivalent body weight and body composition.
Once the pharmacological treatment started (day 1), food intake (FI) and body weight (BW) were measured daily before the dark phase in animals housed in their home cage. Spillage of food was checked daily. The food consumed was calculated by subtracting the food left in the hoppers from the initial pre-weighted amount. FI and BW were measured for three consecutive weeks. Afterwards animals underwent a third MRI analysis in order to observe potential effects of the treatment onto the body composition (changes in fat and lean mass), followed by a glucose tolerance test (GTT) and an insulin tolerance test (ITT). Mice received daily i.p. administration of AOL or its vehicle for a total length of five weeks, until they were sacrificed.
A nuclear echo magnetic resonance imaging whole-body composition analyzer (Echo MRI 900; EchoMedical Systems) was used to repeatedly assess body fat and lean mass in conscious mice.
Animals were injected i.p. with 1.5 g/kg of D-Glucose (Sigma-Aldrich) for the GTT or with 0.5 U/kg of insulin (Humulin, Lilly, France) for the ITT. For the GTT and the ITT, animals were fasted overnight. The tests were conducted the following morning. Blood samples were taken from the tail vein at different time points (0, 15, 30, 60, 90 and 120 minutes after the i.p. administration of glucose or insulin) and glucose concentration was measured using glucose sticks (OneTouch Vita, Lifescan France, Issy les Moulineaux, France).
At sacrifice, blood samples were collected, blood glucose was rapidly assessed using glucose sticks and blood samples were then centrifuged at 3000 rpm for 15 minutes. The obtained plasma was stored at −80° C. for subsequent measurement of insulin, which was carried out by performing an ELISA (kit from Mercodia, Uppsala, Sweden), according to the manufacturer's instructions.

[2] = test system: isolated perfused rat heart; experiment: Global ischemia-reperfusion of isolated perfused rat heart (Langendorff); details: 10 μM AOL pretreatment, 30 min ischemia
Protocol: The consequences of 30 minutes' global ischemia followed by 120 minutes' reperfusion (FIG. 11) on contractility and tissue viability were studied on isolated perfused rat heart pretreated or not (control vehicle) with 10 μM AOL.
All procedures conformed to the UK Animals (Scientific Procedures) Act 1986 and the Guide for the Care and Use of Laboratory Animals published by the National Institutes of Health (NIH Publication No. 85-23. revised 1996). Male Wistar rats (250-300 g) were anesthetized by 3% isoflurane, heparinized and euthanized by a lethal IP injection of pentobarbital (130 mg/kg). […] Langendorff heart perfusions were performed (Garlid et al., 2006. Am. J. Physiol. Heart Circ. Physiol. 291(1):H152-60) and contractility was assessed by continuous measurement of the rate pressure product (RPP) thanks to a balloon placed in the left ventricle and connected to a pressure transducer. […]
At the end of the reperfusion period, hearts were stained with triphenyltetrazolium chloride (TTC): hearts were perfused for 7 minutes at 13 mL/min with a 12% (w/v) TTC solution in order to get a 1% final concentration in the heart. […] The surface of the necrotic and at-risk areas of each side were determined on each photography by planimetry (AlphaEase v5.5), and infarct size was expressed as a percentage of the total cross-sectional area of the heart, since total heart was subjected to ischemia.

[3] = test system: carcinoma cell lines A549 and H460; experiment: Cytotoxicity, sulforhodamine B (SRB) assay; format: cell-based, human; details: 48 hours
Protocol: Human non-small cell carcinoma cell line H460 and A549 were obtained from ATCC. Cells were cultured in growth medium consisting of DMEM (GIBCO), 10% FBS (GIBCO) and 100 units of penicillin and 100 μg/mL streptomycin (GIBCO). The cells were maintained in either 75-cm^2 T-flasks or 175-cm^2 T-flasks (BD Biosciences) in an incubator (model 3100 series, Forma Scientific, Marietta, Ohio) controlled at 37° C., 95% humidity, and 5% CO2. Cell culture medium was refreshed every other day. Every 2 to 3 days, H460 and A549 cultures were detached from the flasks using a 0.25% trypsin solution (Gibco) and subcultured. All cultures were maintained at 80-90% confluence at the time of subculture.
Cytotoxicity screening was carried out by sulforhodamine B colorimetric assay. A549 and H460 cells (2·10^3) were seeded in a 96-well plate, and after adherence, cells were incubated with 5 to 500 μM of AOL or AOX or control dimethyl sulfoxide (DMSO). Cytotoxicity was evaluated after 48 hours treatment sulforhodamine B (SRB) assay, according to Vichai (Vichai et al., 2006. Nat. Protoc. 1(3):1112-6).

SMILES	effect on body weight ([1]; 5 and 10 mg/kg i.p. daily, HFD, three weeks)	AUC of glucose during ITT ([1]; AOL 5 mg/kg)	action of insulin on circulating glucose levels during an ITT ([1]; AOL 10 mg/kg)	AUC of glucose during ITT ([1]; AOL 10 mg/kg)	blood glucose levels ([1]; after five weeks of treatment, 2-hour fasted mice)	lean mass ([1]; after three weeks of chronic administration)	fat mass ([1]; after three weeks of chronic administration, p=0.13)	body weight and food intake ([1]; chronic daily administration, data not shown)	infarcted tissue rescued (TTC staining) ([2]; 120 min reperfusion)	heart contractility (RPP) relative to control hearts ([2]; after 2 hours of reperfusion)	concentrations without significant toxicity [3]	IC50 ([3]; Homo sapiens, 0 to 500 μM, read-out: IC50 for high dose toxicity)
COc1ccc(-c2cc(=S)ss2)cc1 [AOL, 5-(4-methoxyphenyl)-3H-1,2-dithiole-3-thione]	did not have a significant effect	15006.56±1139.69	significantly blunted the action of insulin	18168.33±1562.90	tended to decrease blood glucose levels	did not have any effect on lean mass	tended to reduce fat mass	tended to decrease body weight and food intake	about 50%	about three times higher than control hearts	–	–
Oc1ccc(-c2cc(=S)ss2)cc1 [AOX, 5-(4-hydroxyphenyl)-3H-1,2-dithiole-3-thione]	–	–	–	–	–	–	–	–	–	–	lower than 100 μM	134.8 ± 0.3 µM
